In ChEMBL document CHEMBL1201862, “PubChem BioAssay data set” (2004):
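Protocol summary: plate cells (96-well), add compound at 5 concentrations, incubate 48 h, interpolate endpoints linearly. At the GI50, growth is halved.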 Activity calls are given as the source filed them. Cut-off read from the data, not from the text of the source: active = GI50 up to about 1.1 µM and inactive = higher.

Experiments:
Test in all cases: NCI anticancer screen, dose series, 48 h
SK-MEL-2 = tested on: SK-MEL-2
NCI-H522 = tested on: NCI-H522
CCRF-CEM = tested on: CCRF-CEM
CAKI-1 = tested on: CAKI-1
786-0 = tested on: 786-0
HL-60 = tested on: HL-60
HCC 2998 = tested on: HCC 2998
SF-295 = tested on: SF-295
OVCAR-8 = tested on: OVCAR-8
NCI-H23 = tested on: NCI-H23
SK-MEL-5 = tested on: SK-MEL-5
KM12 = tested on: KM12
SF-539 = tested on: SF-539
HCT-15 = tested on: HCT-15
ACHN = tested on: ACHN
NCI-H460 = tested on: NCI-H460
LOX IMVI = tested on: LOX IMVI
OVCAR-5 = tested on: OVCAR-5
U-251 = tested on: U-251

| Compound | GI50 (SK-MEL-2) | GI50 (NCI-H522) | GI50 (CCRF-CEM) | GI50 (CAKI-1) | GI50 (786-0) | GI50 (HL-60) | GI50 (HCC 2998) | GI50 (SF-295) | GI50 (OVCAR-8) | GI50 (NCI-H23) | GI50 (SK-MEL-5) | GI50 (KM12) | GI50 (SF-539) | GI50 (HCT-15) | GI50 (ACHN) | GI50 (NCI-H460) | GI50 (LOX IMVI) | GI50 (OVCAR-5) | GI50 (U-251) |
| --- | --- | --- | --- | --- | --- | --- | --- | --- | --- | --- | --- | --- | --- | --- | --- | --- | --- | --- | --- |
| O=S1(=O)OCCOS(=O)(=O)C1I | > 100 µM (inactive) | > 100 µM (inactive) | 86.9 µM (inactive) | > 100 µM (inactive) | 71 µM (inactive) | 53.2 µM (inactive) | > 100 µM (inactive) | 56.2 µM (inactive) | > 100 µM (inactive) | > 100 µM (inactive) | 66.8 µM (inactive) | > 100 µM (inactive) | > 100 µM (inactive) | – | – | – | – | – | – |
| Cc1ccc(-c2nc3ccccc3c(=O)n2NCC2(O)OCC(O)C(O)C2O)cc1 (configuration not stated) | > 100 µM (inactive) | > 100 µM (inactive) | > 100 µM (inactive) | > 100 µM (inactive) | > 100 µM (inactive) | > 100 µM (inactive) | – | > 100 µM (inactive) | > 100 µM (inactive) | > 100 µM (inactive) | > 100 µM (inactive) | > 100 µM (inactive) | > 100 µM (inactive) | > 100 µM | > 100 µM (inactive) | > 100 µM (inactive) | > 100 µM (inactive) | > 100 µM (inactive) | > 100 µM (inactive) |
| COc1cc2c(cc1O)[C@H](Cc1ccc(Oc3cc(C[C@H]4c5cc(OC)c(OC)cc5CCN4C)ccc3OC)cc1)NCC2 | 17 µM (inactive) | – | 9.64 µM (inactive) | 4.08 µM (inactive) | 12.4 µM (inactive) | 12.4 µM (inactive) | 6.62 µM (inactive) | 11.9 µM (inactive) | 14.5 µM (inactive) | 11.9 µM (inactive) | – | 12.9 µM (inactive) | 10.5 µM (inactive) | 7.98 µM | 11.4 µM (inactive) | 14.3 µM (inactive) | 8.95 µM (inactive) | 18 µM (inactive) | 12 µM (inactive) |
| CC(C)c1ccc(C(c2ccc(OCC(=O)O)cc2)c2ccc(C(C)C)cc(=O)c2O)c(O)c(=O)c1 | – | – | 4.05 µM (inactive) | 3.82 µM (inactive) | 6.47 µM (inactive) | 3.27 µM (inactive) | 4.94 µM (inactive) | 4.4 µM (inactive) | 4.44 µM (inactive) | 3.78 µM (inactive) | 3.22 µM (inactive) | – | 6.05 µM (inactive) | 3.56 µM | 4.66 µM (inactive) | 2.83 µM (inactive) | 3.71 µM (inactive) | – | 5.3 µM (inactive) |
| Cc1cc2c(=O)cc(-c3ccc(C(=O)O)cc3)oc2c(C(N)=O)c1C | > 100 µM (inactive) | > 100 µM (inactive) | > 100 µM (inactive) | – | > 100 µM (inactive) | – | > 100 µM (inactive) | > 100 µM (inactive) | > 100 µM (inactive) | > 100 µM (inactive) | > 100 µM (inactive) | > 100 µM (inactive) | > 100 µM (inactive) | > 100 µM | > 100 µM (inactive) | > 100 µM (inactive) | > 100 µM (inactive) | > 100 µM (inactive) | > 100 µM (inactive) |
| CCCNCc1nc2ccc(Br)cc2c(=O)n1CCC | 12.4 µM (inactive) | 13.4 µM (inactive) | 3.27 µM (inactive) | – | 15.8 µM (inactive) | 6.53 µM (inactive) | – | 16.9 µM (inactive) | 13.4 µM (inactive) | 13.4 µM (inactive) | 7.55 µM (inactive) | 15.1 µM (inactive) | 15.8 µM (inactive) | 14.2 µM | 16.1 µM (inactive) | – | 4.93 µM (inactive) | – | 13.3 µM (inactive) |
| COC1=CC(C)C2C[C@H]3O[C@H](O)C[C@H]4C(C)C(=O)C(O)C([C@@]2(C)C1=O)[C@@]34C (some centres not stated) | – | > 100 µM (inactive) | > 100 µM (inactive) | > 100 µM (inactive) | > 100 µM (inactive) | – | > 100 µM (inactive) | > 100 µM (inactive) | > 100 µM (inactive) | > 100 µM (inactive) | > 100 µM (inactive) | > 100 µM (inactive) | > 100 µM (inactive) | > 100 µM | > 100 µM (inactive) | > 100 µM (inactive) | > 100 µM (inactive) | – | > 10 µM (inactive) |
| c1cc2c(cc1NC1=NCCO1)CCC2 | > 10 µM (inactive) | – | > 10 µM (inactive) | – | > 10 µM (inactive) | 5.61 µM (inactive) | > 10 µM (inactive) | > 10 µM (inactive) | > 10 µM (inactive) | > 10 µM (inactive) | > 10 µM (inactive) | > 10 µM (inactive) | 3.08 µM (inactive) | > 10 µM | – | – | > 10 µM (inactive) | – | – |
| COC(=O)C(=O)C1(CCC(C)=O)c2ccccc2-c2ccccc21 | 83.4 µM (inactive) | 69.2 µM (inactive) | 63.2 µM (inactive) | 35.2 µM (inactive) | 85.1 µM (inactive) | 35.5 µM (inactive) | 72.3 µM (inactive) | > 100 µM (inactive) | 99.8 µM (inactive) | 63.2 µM (inactive) | 35.7 µM (inactive) | 74.3 µM (inactive) | – | 56.4 µM | > 100 µM (inactive) | 59.8 µM (inactive) | 62.1 µM (inactive) | > 100 µM (inactive) | 68.5 µM (inactive) |
